Experimental data: patent publication US10568856B2, “Composition for improved sleep” (Jamieson Laboratories, Ltd., priority 2015, dated 2020)

Test: Melatonin time release profile (dissolution testing) of bilayer caplet
Assay type: physicochemical
Conditions: for Melatonin Released (%): bilayer caplet
Source text: Initially, a small portion of melatonin was being added to the immediate release layer. […] The premix blends were modified by relocating all melatonin ingredients to the time release layer. During initial trials, modifications were also made to excipients for cost purposes. […] The final bilayer caplet is coated, making it easier to swallow, with peppermint oil for odour masking. With these optimum parameters assessed for each layer, the tablet satisfies all of the requisite physical and chemical parameters to deliver the ingredients as intended.

Melatonin Released (%) (hardness 28 kp, time 15 minutes): 20% | Melatonin Released (%) (hardness 28 kp, time 60 minutes): 57% | Melatonin Released (%) (hardness 28 kp, time 360 minutes): 99% | Melatonin Released (%) (hardness 30 kp, time 15 minutes): 18% | Melatonin Released (%) (hardness 30 kp, time 60 minutes): 52% | Melatonin Released (%) (hardness 30 kp, time 360 minutes): 98% | melatonin release in dissolution testing (initial trial formulation with a small portion of melatonin in the immediate release layer): released too quickly
Structure (SMILES): COc1ccc2[nH]cc(CCNC(C)=O)c2c1 [Melatonin]
